Measured values published in patent publication US7101867B2, “Benzofuran derivatives, their production and use” (Takeda Pharmaceutical Company Limited, priority 1998, dated 2006).

Tested on: Human neuroblastoma SK-N-SH cells
Experiment: Cytoprotection in human neuroblastoma SK-N-SH cells against a PI-3-kinase inhibitor, LY-294002
Assay type: cell-based
Details: test compound 1.0 μM with LY-294002 30 μM; survival by Alamarblue reduction one day after initiation; (A−B)/(C−B)×100
Procedure: Cytoprotection in human neuroblastoma SK-N-SH cells against a PI-3-kinase inhibitor, LY-294002
Human neuroblastoma SK-N-SH cells were purchased from American Type Cell Culture (ATCC). DMEM/F-12 culture medium and potassium/magnesium-free phosphate buffer saline (PBS(−)) were purchased from Nikken Biomedical Co., Ltd., N2 additives and EDTA solution from GIBCO BRL Company, fetal bovine serum (FCS) and a mixed solution of penicillin (5000 U/ml) and streptomycin (5 mg/ml) from BioWhittaker Inc., Alamarblue™ reagent from Wako Pure Chemical Industries Ltd., culture flasks from Falcon Company, collagen-coated 96-well multi-plates from Iwaki Glass Co., Ltd., and LY-294002 from Alexis Biochemicals, respectively. As for other reagents, commercially available guaranteed reagents were used.
By using DMEM/F-12 culture medium which contains 5% FCS, 0.5% N2, 10 mM HEPES, and a 1% mixed solution of penicillin (5000 U/ml) and streptomycin (5 mg/ml), SK-N-SH cells were subcultured in a carbon dioxide incubator under a mixed gas atmosphere consisting of 10% carbon dioxide and 90% air. After being cultivated to a sub-confluent stage, the cells were detached by a PBS(−) solution containing 2.5 mM EDTA and seeded onto collagen-coated 96-well multi-plates in the proportion of 1.0×10^4 cells/100 μl/well. After cultivation for 24 hours, the cells thus prepared were used for the cytoprotection assay.
(§1) There was removed 80 μl of the culture medium of SK-N-SH cells that was cultivated as described above on 96-wells, collagen-coated, multi-plates and thereto were added at the same time 40 μl each of LY-294002 of the final concentrations of 30 μM and each test compound the final concentrations of that was adjusted to be 1.0 μM, to initiate the cytotoxicity test. Hereupon, each test compound was used after adjusting the concentration to be 10 mM with dimethyl sulfoxide and LY-294002 was used after adjusting the concentration to be 100 mM with dimethyl sulfoxide, each of which was diluted prior to its use in the test.
The survival activity of nerve cells that were still living one day after initiation of the cytotoxicity test was determined by the activity of the cells to reduce the Alamarblue™ reagent as an index. There was removed 20 μl of the culture medium and 20 μl of Alamarblue™ reagent was added. The amount of Alamarblue™ reagent reduced by the cells over the period of 4 hours was calorimetrically determined (measurement wave length: 570 nm; reference wave length: 600 nm) By using a plate reader (WAKO SPECTRAMAX 250 Microplate Reader). Cytoprotection activity was calculated according to the following equation. Cytoprotection activity of each compound=(A−B)/(C−B)×100(%) • A: The survival activity of the group consisting of a test compound and LY-294002 added • B: The survival activity of the group consisting of LY-294002 added • C: The survival activity of the control group
The cytoprotection activity of each compound was obtained By using at least 4 wells for every dose of a test compound.
Cytoprotection in Human Neuroblastoma SK-N-SH Cells Against a PI-3-kinase Inhibitor, LY-294002
as §1, with “cytotoxicity assay.” for “cytotoxicity test.”
The survival activity of nerve cells that were still living one day after initiation of the cytotoxicity test was determined by the activity of the cells to reduce the Alamarblue™ reagent as an index. […]

| Compound | Cytoprotection Activity (%) |
| --- | --- |
| COc1cc2c(cc1OC)CN(c1c(C)c(C)c3c(c1C)C(c1ccc(C)cc1)C(C)(C)O3)C2 (stereo not shown) [Example 6a, 5,6-dimethoxy-2-[2,2,4,6,7-pentamethyl-3-(4-methylphenyl)-2,3-dihydro-1-benzofuran-5-yl]isoindoline] | 28.2 |
| Cc1c(C)c2c(c(C)c1NC(=O)c1ccc(Cl)cc1)C(c1ccc(C(C)C)cc1)C(C)(C)O2 (stereo not shown) [Example 20b, 4-Chloro-N-[3-(4-isopropylphenyl)-2,2,4,6,7-pentamethyl-2,3-dihydro-1-benzofuran-5-yl]benzamide] | 12.6 |
| Cc1c(C)c2c(c(C)c1NC(=O)c1ccc3c(c1)OCO3)C(c1ccc(C(C)C)cc1)C(C)(C)O2 (stereo not shown) [Example 22b, N-[3-(4-Isopropylphenyl)-2,2,4,6,7-pentamethyl-2,3-dihydro-1-benzofuran-5-yl]-1,3-benzodioxol-5-carboxamide] | 12.8 |
| COc1ccc(CNc2c(C)c(C)c3oc(C)c(-c4ccc(C(C)C)cc4)c3c2C)cc1 [Example 45b, 3-(4-isopropylphenyl)-N-(4-methoxybenzyl)-2,4,6,7-tetramethyl-1-benzofuran-5-amine] | 20.6 |
| Cc1ccc(C2c3c(C)c(-n4cc5cc6c(cc5c4)OCO6)c(C)c(C)c3OC2(C)C)cc1 (stereo not shown) [Example 14a, 6-[2,2,4,6,7-pentamethyl-3-(4-methylphenyl)-2,3-dihydro-1-benzofuran-5-yl]-6H-[1,3]dioxolo[4,5-f]isoindole] | 26.6 |
| Cc1c(C)c2c(c(C)c1NC(=O)c1cccs1)C(c1ccc(C(C)C)cc1)C(C)(C)O2 (stereo not shown) [Example 24b, N-[3-(4-Isopropylphenyl)-2,2,4,6,7-pentamethyl-2,3-dihydro-1-benzofuran-5-yl]-2-thiophenecarboxamide] | 16.4 |
| COc1ccc(C(=O)Nc2c(C)c(C)c3c(c2C)C(c2ccc(C(C)C)cc2)C2(CCN(C)CC2)O3)cc1 (stereo not shown) [Example 52b, N-[3-(4-Isopropylphenyl)-1′,4,6,7-tetramethylspiro[benzofuran-2(3H),4′-piperidine]-5-yl]-4-methoxybenzamide] | 16.4 |
